According to patent publication US20160108381A1, “DNA POLYMERASES AND MUTANTS THEREOF” (LIFE TECHNOLOGIES CORPORATION, priority 2001, published 2016):

Assays:
[1] = molecular target: T1, Caldicellulosiruptor sp. strain Rt69B.1 (RT69B) DNA polymerase, SEQ ID NO:19 (Caldicellulosiruptor saccharolyticus, UniProt Q6X9R7); test: Steady-state kinetics, DNA- and RNA-dependent polymerase activity; format: biochemical; details: Table 40; dTTP; 72 °C
T1 sequence (Q6X9R7 with tags, fused parts or gaps): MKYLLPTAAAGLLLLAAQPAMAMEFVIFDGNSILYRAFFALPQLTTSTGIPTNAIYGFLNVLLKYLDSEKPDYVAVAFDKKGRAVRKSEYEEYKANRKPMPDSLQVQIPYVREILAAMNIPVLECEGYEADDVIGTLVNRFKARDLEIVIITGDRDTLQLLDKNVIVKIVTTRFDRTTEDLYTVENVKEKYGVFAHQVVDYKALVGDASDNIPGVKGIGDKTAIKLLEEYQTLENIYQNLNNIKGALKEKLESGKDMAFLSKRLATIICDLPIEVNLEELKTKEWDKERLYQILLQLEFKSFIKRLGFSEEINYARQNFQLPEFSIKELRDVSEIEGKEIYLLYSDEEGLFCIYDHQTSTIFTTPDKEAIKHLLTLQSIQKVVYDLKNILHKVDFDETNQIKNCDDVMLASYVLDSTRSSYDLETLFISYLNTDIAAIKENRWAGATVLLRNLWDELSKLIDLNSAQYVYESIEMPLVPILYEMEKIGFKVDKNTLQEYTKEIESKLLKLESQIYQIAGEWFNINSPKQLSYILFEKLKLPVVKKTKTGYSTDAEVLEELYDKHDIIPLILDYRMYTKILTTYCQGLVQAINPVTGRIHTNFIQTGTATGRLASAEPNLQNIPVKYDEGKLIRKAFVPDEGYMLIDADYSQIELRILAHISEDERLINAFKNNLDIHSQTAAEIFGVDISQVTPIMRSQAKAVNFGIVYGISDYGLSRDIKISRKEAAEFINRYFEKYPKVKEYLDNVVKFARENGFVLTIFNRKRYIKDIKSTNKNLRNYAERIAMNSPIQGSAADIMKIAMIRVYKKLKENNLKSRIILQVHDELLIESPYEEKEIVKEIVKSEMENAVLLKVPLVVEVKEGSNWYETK
Protocol: (§1) Subcloning of genes for Tok13B, Tok7B, and Rt69B. Subcloning of the genes for Tok13B, Tok7B, and Rt69B DNA polymerase was carried out to remove the pelB leader sequence derived from pET26B. This reduced proteolytic degradation of the DNA polymerases from these genes observed in E. coli when the pelB leader was present. Each DNA polymerase gene was removed from pET26B by restriction digestion of the plasmid DNA with NcoI, which cut at the 5′ end of the gene, and BamHI, which cut downstream of the translation stop codon at the 3′ end of the gene. The NcoI-BamHI fragment was ligated into the NcoI and BamHI sites of expression vector pET14B (Novagen Inc., Madison, Wis.). The recombinant plasmids were transformed into the E. coli expression host BL21-AI (Invitrogen Corporation, Carlsbad, Calif.).
(§2) Purification of CA2, B.EA1, Rt41A, Dth, Tok13B, Tok7B, and Rt69B DNA polymerase. E. coli cells (BL21SI, Invitrogen Corporation, Carlsbad, Calif.) bearing the plasmid pET26B with the gene for CA2, B.EA1, Rt41A, or Dth DNA polymerase were grown in 2.8-1 Fembach flasks in LB broth containing no salt and 50 μg/ml kanamycin at 37° C. After the culture reached an A590 of 1.2, expression of DNA polymerase was induced with 0.3 M NaCl for 3 hr. Cells were harvested by centrifugation and stored at −70° C. […]

[2] = molecular target: T2, Caldicellulosiruptor sp. strain Tok13B.1 (Tok13B) DNA polymerase, SEQ ID NO:17 (Caldicellulosiruptor saccharolyticus, UniProt Q6X9R9); test: as above; format: biochemical; details: Table 40; dTTP; 72 °C
T2 sequence (Q6X9R9 with tags, fused parts or gaps): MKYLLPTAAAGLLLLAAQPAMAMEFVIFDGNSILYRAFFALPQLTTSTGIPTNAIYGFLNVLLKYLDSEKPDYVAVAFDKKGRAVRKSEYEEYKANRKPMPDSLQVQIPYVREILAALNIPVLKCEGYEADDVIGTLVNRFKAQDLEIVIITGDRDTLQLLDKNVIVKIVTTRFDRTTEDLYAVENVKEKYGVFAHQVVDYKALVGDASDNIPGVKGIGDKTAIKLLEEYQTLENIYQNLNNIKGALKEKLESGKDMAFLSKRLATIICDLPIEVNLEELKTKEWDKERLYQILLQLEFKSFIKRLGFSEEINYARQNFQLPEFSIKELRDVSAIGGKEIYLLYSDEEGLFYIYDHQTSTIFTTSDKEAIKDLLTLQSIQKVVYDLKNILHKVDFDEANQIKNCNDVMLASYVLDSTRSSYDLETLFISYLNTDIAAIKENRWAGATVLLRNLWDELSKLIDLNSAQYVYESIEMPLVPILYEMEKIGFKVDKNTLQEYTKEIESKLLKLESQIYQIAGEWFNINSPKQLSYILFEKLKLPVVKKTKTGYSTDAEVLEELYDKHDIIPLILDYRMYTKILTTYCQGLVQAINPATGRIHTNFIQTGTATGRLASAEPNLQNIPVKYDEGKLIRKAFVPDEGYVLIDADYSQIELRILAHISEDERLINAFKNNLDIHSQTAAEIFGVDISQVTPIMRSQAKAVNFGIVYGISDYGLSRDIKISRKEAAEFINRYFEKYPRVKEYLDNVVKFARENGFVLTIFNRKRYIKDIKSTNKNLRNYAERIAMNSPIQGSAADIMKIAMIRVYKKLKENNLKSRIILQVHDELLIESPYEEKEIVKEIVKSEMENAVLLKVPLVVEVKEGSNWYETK
Protocol: as §1, §2

## Cc1cn([C@H]2C[C@H](O)[C@@H](COP(=O)(O)OP(=O)(O)OP(=O)(O)O)O2)c(=O)[nH]c1=O [dTTP]
[1]
  kCAT Ratio (RNA/DNA): 0.03
[2]
  kCAT Ratio (RNA/DNA): 0.03
